The values below come from patent US3991187A, “Medicinal compositions and methods of use involving phosphoric acid esters” (Aktiebolaget Leo, priority 1971, dated 1976).

Structures can show the parent of a compound that is named as a salt.

The test system of experiment [1] is Slow Reacting Substance (SRS). In words: antagonism to Slow Reacting Substance on the isolated guinea-pig ileum (Mathe & Strandberg). It counts as cell-based. The method, then: The antagonism to Slow Reacting Substance (SRS) is determined on the isolated guinea-pig ileum as described by Mathe & Strandberg (Acta physiol. scand. 82:460, 1971). Purified SRS is obtained from cat paws perfused with compound 48/80 (Strandberg & Uvnas: Acta physiol. scand. 82:358, 1971). Sodium bis(4-(3-oxo-3-(2,4,6-trihydroxyphenyl)propyl)phenyl) phosphate was tested in this system in several concentrations.

Experiment [2] relates to prostaglandins E1, E2 F1α and F2α. Description: PG-inhibitory effect on the isolated gerbil colon. It counts as cell-based, Gerbils (Meriones unguiculatus). Conditions: for concentration for 50 per cent reduction of the PG-induced contraction, as fraction of that of PPP: relative to PPP (10-75 μg/ml). The method, then: The PG-inhibitory effect of esters of the present invention on the gerbil colon are determined using the general technique described by Eakins, Miller & Karim (J. Pharm. Exp. Ther. 176:441, 1971). Gerbils (Meriones unguiculatus) of own breed, both sexes, weighing 50-80 g are used. The animal is stunned, colon ascendens immediately removed, and a 2-3 cm piece mounted in a 6 ml bath containing a modified de Jalon solution at 28° C and continuously oxygenated. Contractions of the organ are registered either isotonically or isometrically. When testing the inhibitory effect of a compound this is added to the bath 2 min before the addition of prostaglandin. […] Several concentrations of each antagonist are used.

The next experiment deals with gerbil colon. In words: smooth muscle stimulatory effect on the gerbil colon in vivo. More on the design: species or system mongolian gerbils. The method, then: This example illustrates the smooth muscle stimulatory effect of esters of this invention on the gerbil colon in vivo.
The experiments are performed with mongolian gerbils, anesthetized with pentobarbital, 50 mg/kg. The ascending colon is exposed and carefully stretched between silk thread loops and a strain-gauge transducer.
After a stable base-line has been established an ester of this invention, sodium bis (4-(3-oxo-3-(2,4,6-trihydroxyphenyl)-propyl)phenyl) phosphate is infused i.v.
In doses from 40 mg/kg this treatment causes the gut to respond with a series of contractions.

Experiment [3] deals with acetylcholine, 5-HT and bradykinin. In words: selectivity of the antagonism: other agonists on the gerbil colon. It counts as cell-based, Gerbils (Meriones unguiculatus). Conditions: far higher concentrations than the prostaglandin-inhibitory ones. The text has this:
(§1) Results from these experiments give an approximate idea of the PG-inhibitory potency of the compounds. When more precise information about this is desired we use a more elaborate method involving the establishment of several PG dose-response curves in the presence of various concentrations of inhibitor. The method used is essentially the same as that described by Arunlakshana & Schild (Br. J. Pharm. 14:48, 1959). Other agonists, acetylcholine,5-HT and bradykinin, are included in these experiments in order to determine the selectivity of the antagonism.
(§2) In the quantitative assay it is confirmed that sodium bis(4-(3-oxo-3-(2,4,6-trihydroxyphenyl)propyl)phenyl)phosphate has a PG inhibition potency about 10 times that of PPP on a weight basis, and also the results with sodium bis (3,5-dihydroxy-4-(3-(4-hydroxyphenyl)propionyl)phenyl)phosphate are confirmed.

A further experiment relates to prostaglandins. Description: quantitative assay: PG dose-response curves in the presence of inhibitor (Arunlakshana & Schild), gerbil colon. It counts as cell-based, Gerbils (Meriones unguiculatus).
Source text: as §1, §2

The subject of the next experiment is PGE1. In words: prostaglandin-stimulated glycolysis of the prepubertal ovary (lactic acid production). It counts as cell-based, rats. The method, then:
The action of esters of the present invention on the prostaglandin-stimulated glycolysis of the prepubertal ovary is investigated. The method used has been described in detail by Perklev & Ahren (Life Sciences Part I, 10:1387, 1971). In these experiments ovaries from prepubertal rats are removed and placed in Erlenmeyer flasks containing compounds of this invention dissolved in Krebs biocarbonate buffer. After that the ovaries have been preincubated during 60 min. at 37° C in this medium, they are blotted on filter paper and then washed for 2 min. in plain buffer. The ovaries are then transferred to a new incubation medium containing prostaglandins (PG) dissolved in Krebs bicarbonate buffer and incubated at 37° C for 2 hrs with continuous shaking. The ovarian glycolysis is then determined by measuring the concentration of lactic acid in the incubation medium. When polyphloretin phosphate (PPP) is present in the preincubation medium in a concentration of 500 μg/ml, the subsequent ovarian lactic acid production produced by PGE1 is reduced to about 50% of that obtained with ovaries preincubated in plain buffer. When sodium bis(4-(3-(2,4,6-trihydroxyphenyl)propyl)phenyl)phosphate is investigated in the same experimental system, a 50% reduction of the lactate production is seen when only 50-100 μg/ml of the compound is present in the preincubation medium.

Another experiment has as its system bronchial smooth muscle. Description: isolated perfused guinea-pig lung preparation, bronchoconstriction. It counts as cell-based, guinea pigs. The text has this:
The effects of esters of the present invention on bronchial smooth muscle have been investigated using an isolated perfused guinea-pig lung preparation according to Bhattacharya & Delaunois (Arch. Int. Pharmacodyn. 101:495, 1955). The lungs from guinea pigs weighing 300-400 g are removed, and the trachea and A. pulmonalis cannulated. The arterial cannula is connected to a perfusion fluid reservoir containing Tyrode solution buffered with 10 % Sorensen phosphate buffer. The tracheal cannula is connected with tubing to a carbogen gas supply delivering a constant amount per time unit. The perfusion pressure is measured in a side arm of the tubing with a "Mercury" transducer connected to an Ultralette UV-recorder. The compounds are injected via the arterial cannula, close to the entrance of A. pulmonalis in the lung.

`O=C(CCc1ccc(O)cc1)c1c(O)cc(OP(=O)(O)Oc2cc(O)c(C(=O)CCc3ccc(O)cc3)c(O)c2)cc1O` [sodium bis(3,5-dihydroxy-4-(3-(4-hydroxyphenyl)propionyl)phenyl phosphate]: in experiment [1], the “inhibition of SRS” value is listed as “inhibit SRS”. Besides, the “concentration for 50 per cent reduction of the PG-induced contraction, as fraction of that of PPP” value in experiment [2] is recorded as “one fourth”. The “contraction of the colon” value in the experiment on gerbil colon (i.v., same dose range (from 40 mg/kg)) is given as “give contraction in the same dose range”. Besides, in experiment [3], the “influence on the contractions elicited by acetylcholine, 5-HT or bradykinin” value was “no influence”. Besides, the “results of the approximate assay (one fourth of the PPP concentration) in the quantitative assay” value in the experiment with prostaglandins is “confirmed”. The “prostaglandin inhibiting activity” value in the experiment with PGE1 (compared with the compound giving 50% reduction at 50-100 μg/ml) is “same order”.

`O=C(CCc1ccc(OP(=O)([O-])Oc2ccc(CCC(=O)c3c(O)cc(O)cc3O)cc2)cc1)c1c(O)cc(O)cc1O.[Na+]` [sodium bis(4-(3-oxo-3-(2,4,6-trihydroxyphenyl)-propyl)phenyl) phosphate]: the “dose showing a bronchoconstricting effect” value in the experiment with bronchial smooth muscle (injected via the arterial cannula, about 0.5 mg and upwards) was no less than 0.5 mg. Also, in experiment [1] (Cavia porcellus, concentrations as low as, read-out: concentration that inhibits contractions produced by SRS), the minimal effective concentration was no less than 5 µg/mL. The “manner of inhibition of SRS” value in experiment [1] (parallel shift of the dose-response curves, no change in maximum contraction) is recorded as “competitive manner”. The “concentration for 50 per cent reduction of the PG-induced contraction, as fraction of that of PPP” value in experiment [2] is “about one tenth”. In the experiment on gerbil colon (Meriones unguiculatus, iv, infused i.v., gerbils anesthetized with pentobarbital, ascending colon, read-out: dose causing the gut to respond with a series of contractions), the minimal effective dose was no less than 40 mg/kg. Also, the “influence on the contractions elicited by acetylcholine, 5-HT or bradykinin” value in experiment [3] is reported as “no influence”. The “PG inhibition potency relative to PPP” value in the experiment with prostaglandins (on a weight basis) is “about 10 times”. In addition, the “activity as a prostaglandin inhibitor relative to PPP” value in the experiment with PGE1 was 5-10 times. In addition, the IC50 in the experiment on PGE1 (Rattus norvegicus, preincubation 60 min at 37° C, read-out: concentration in the preincubation medium giving a 50% reduction of the lactate production) was in the range of 50 to 100 µg/mL.

As for `O=P(O)(Oc1ccccc1)Oc1ccccc1` [sodium salt of diphenyl phosphate, sodium diphenyl phosphates, reference compound], the “bronchoconstricting effect” value in the experiment on bronchial smooth muscle (dose 12.8 mg) is reported as “completely lacked such an effect”. In experiment [1], the “inhibition of SRS” value is on record as “without effect”. Further, in experiment [2] (concentrations 10 times as high as that of PPP), the “effect on PG-induced contraction” value is “without effect”. Further, the “effect on the colon” value with gerbil colon (doses up to 400 mg/kg) is on record as “no effects at all”.
